{
  "source": "patent EP1129352B1",
  "about": "(priority 1998, dated 2000)",
  "key": {"protein phosphatase 2A [1]": {"biological_target": "T1, protein phosphatase 2A (Homo sapiens, UniProt P67775)", "T1 construct": "purchased Upstate Biotechnology (Lake Placid, NY)", "T1 sequence (P67775 whole entry)": "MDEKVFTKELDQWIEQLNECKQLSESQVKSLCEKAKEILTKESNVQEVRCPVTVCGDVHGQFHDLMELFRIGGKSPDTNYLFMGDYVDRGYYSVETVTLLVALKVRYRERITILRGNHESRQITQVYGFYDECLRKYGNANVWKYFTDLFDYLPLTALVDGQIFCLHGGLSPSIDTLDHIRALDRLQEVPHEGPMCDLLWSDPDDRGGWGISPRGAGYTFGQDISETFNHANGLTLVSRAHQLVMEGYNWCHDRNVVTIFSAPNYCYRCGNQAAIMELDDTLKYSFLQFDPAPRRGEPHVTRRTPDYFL", "assay": "biochemical", "assay_type": "binding"}, "protein phosphatase 2A [2]": {"biological_target": "T1, protein phosphatase 2A", "assay": "biochemical", "assay_type": "biochemical"}, "[3]": {"settings": "0.4%, preincubated 30 minutes on ice, relative to control, ± SEM"}, "[4]": {"settings": "read-out: % activity Competitive binding assay"}, "[5]": {"settings": "read-out: % activity Protein phosphatase assay"}},
  "note": "Read-outs that look alike come from different tables or passages of the source. Numbered stars: 1 amine (or outer) side, 2 acyl side, 3 side chain; on linkers, the order of the positions; unused ones are H or OH. Bridge positions count the residues as written; N and C are the ends. Square brackets hold non-standard residues; d marks the D form. Peptide text beside a SMILES is read from it. Adda = CO[C@@H](Cc1ccccc1)[C@@H](C)/C=C(C)/C=C/[C@H](N[*:1])[C@H](C)C(=O)[*:2]; dAsp(3S-Me) = C[C@H](C(=O)[*:3])[C@@H](N[*:1])C(=O)[*:2]; d(γGlu) = O=C(O)[C@@H](CCC(=O)[*:2])N[*:1]; NMeDha = C=C(NC)C(=O)O",
  "data": [
    {"compound": "C/C=C1/C(=O)N[C@@H](C(=O)O)[C@H](C)C(=O)N[C@@H](CCCNC(=N)N)C(=O)N[C@@H](/C=C/C(C)=C/[C@H](C)[C@H](Cc2ccccc2)OC)[C@H](C)C(=O)N[C@@H](C(=O)O)CCC(=O)N1C", "note": "[nodularin, reference compound]", "values": [
      {"measurement": "IC50", "setting": "protein phosphatase 2A [1]; read-out: IC50", "value": 0.015, "unit": "nM"}
    ]},
    {"compound": "COC[C@@H]([C@H](O)[C@H](O)C(=O)NCC[C@H](C)c1nc(/C=C/C[C@@H]2O[C@]3(C[C@@H](O)[C@@H]2C)O[C@H]([C@H](C[C@H](O)[C@H](C)[C@H](O)[C@H](C)/C=C(C)/C(C)=C/C=C/C(C)=C\\C#N)OC)[C@H](OP(=O)(O)O)C3(C)C)co1)N(C)C", "note": "[calyculin A, reference compound]", "values": [
      {"measurement": "IC50", "setting": "protein phosphatase 2A [1]; read-out: IC50", "value": 0.251, "unit": "nM"}
    ]},
    {"compound": "C[S+](C)[O-]", "note": "[DMSO, dimethyl sulfoxide]", "values": [
      {"measurement": "% activity Competitive binding assay", "setting": "protein phosphatase 2A [1]", "value": "72.8 ± 2.3", "unit": "%"},
      {"measurement": "% activity Protein phosphatase assay", "setting": "protein phosphatase 2A [2]", "value": "97.9 ± 3.3", "unit": "%"}
    ]},
    {"compound": "Nonidet P-40", "values": [
      {"measurement": "% activity Competitive binding assay", "setting": "protein phosphatase 2A [1]; 0.4%", "value": "106.0 ± 2.0", "unit": "%"},
      {"measurement": "% activity Protein phosphatase assay", "setting": "protein phosphatase 2A [2]; [3]", "value": "61.1 ± 1.3", "unit": "%"}
    ]},
    {"compound": "Triton X-100", "values": [
      {"measurement": "% activity Competitive binding assay", "setting": "protein phosphatase 2A [1]; 0.4%", "value": "122.3 ± 1.0", "unit": "%"},
      {"measurement": "% activity Protein phosphatase assay", "setting": "protein phosphatase 2A [2]; [3]", "value": "60.2 ± 5.7", "unit": "%"}
    ]},
    {"compound": "C=C1C(=O)N[C@H](C)C(=O)N[C@@H](CC(C)C)C(=O)N[C@@H](C(=O)O)[C@H](C)C(=O)N[C@@H](CCCNC(=N)N)C(=O)N[C@@H](/C=C/C(C)=C/[C@H](C)[C@H](Cc2ccccc2)OC)[C@H](C)C(=O)N[C@@H](C(=O)O)CCC(=O)N1C", "note": "[microcystin-LR, reference compound] (R[Adda][d(γGlu)][NMeDha][dA]L[dAsp(3S-Me)]-OH; lactam N-7)", "values": [
      {"measurement": "IC50", "setting": "protein phosphatase 2A [1]; read-out: IC50", "value": 0.017, "unit": "nM"}
    ]},
    {"compound": "[F-].[Na+]", "note": "[NaF]", "values": [
      {"measurement": "% activity Competitive binding assay", "setting": "protein phosphatase 2A [1]; 5 mM", "value": "102.0 ± 3.3", "unit": "%"},
      {"measurement": "% activity Competitive binding assay", "setting": "protein phosphatase 2A [1]; 50 mM", "value": "101.5 ± 1.9", "unit": "%"},
      {"measurement": "% activity Protein phosphatase assay", "setting": "protein phosphatase 2A [2]; 5 mM, preincubated 30 minutes on ice, relative to control, ± SEM", "value": "62.6 ± 0.4", "unit": "%"},
      {"measurement": "% activity Protein phosphatase assay", "setting": "protein phosphatase 2A [2]; 50 mM, preincubated 30 minutes on ice, relative to control, ± SEM", "value": "7.7 ± 1.4", "unit": "%"}
    ]},
    {"compound": "C[C@H](CCC(=O)NCCC[N+](C)(C)CCCS(=O)(=O)[O-])[C@H]1CC[C@H]2[C@@H]3[C@H](O)C[C@@H]4C[C@H](O)CC[C@]4(C)[C@H]3C[C@H](O)[C@]12C", "note": "[CHAPS]", "values": [
      {"measurement": "% activity Competitive binding assay", "setting": "protein phosphatase 2A [1]", "value": "90.9 ± 9.9", "unit": "%"},
      {"measurement": "% activity Protein phosphatase assay", "setting": "protein phosphatase 2A [2]", "value": "138.0 ± 34.4", "unit": "%"}
    ]},
    {"compound": "CO[C@H]([C@H](O)CC(=O)[C@@H](C)[C@@H](O)CC[C@@H](C)[C@@H]1O[C@]2(CC[C@@H](C)[C@H](CC[C@H](C)C(C)=O)O2)CC[C@@H]1C)[C@H](OC(=O)C[C@@H](O)C1=C(C)C(=O)OC1=O)C(C)C", "note": "[tautomycin, reference compound]", "values": [
      {"measurement": "IC50", "setting": "protein phosphatase 2A [1]", "value": 0.562, "unit": "nM"}
    ]},
    {"compound": "C=C1[C@@H](O)[C@@H]2O[C@]3(CC[C@H](/C=C/[C@@H](C)[C@@H]4CC(C)=C[C@@]5(O[C@H](C[C@@](C)(O)C(=O)O)CC[C@H]5O)O4)O3)CC[C@H]2O[C@@H]1[C@@H](O)C[C@H](C)[C@H]1O[C@@]2(CCCCO2)CC[C@H]1C", "note": "[okadaic acid, reference compound]", "values": [
      {"measurement": "IC50", "setting": "protein phosphatase 2A [1]", "value": 0.1, "unit": "nM"}
    ]},
    {"compound": "O=P([O-])([O-])OP(=O)([O-])[O-].[Na+].[Na+].[Na+].[Na+]", "note": "[NaPPi]", "values": [
      {"measurement": "% activity Competitive binding assay", "setting": "protein phosphatase 2A [1]; 0.05 mM", "value": "101.4 ± 4.1", "unit": "%"},
      {"measurement": "% activity Protein phosphatase assay", "setting": "protein phosphatase 2A [2]; 0.05 mM, preincubated 30 minutes on ice, relative to control, ± SEM", "value": "14.2 ± 1.2", "unit": "%"}
    ]},
    {"compound": "Nc1ncnc2c1ncn2[C@@H]1O[C@H](COP(=O)(O)OP(=O)(O)OP(=O)(O)O)[C@@H](O)[C@H]1O", "note": "[ATP]", "values": [
      {"measurement": "activity at 500 µM", "setting": "protein phosphatase 2A [1]; [4]", "value": "102 ± 1.7", "unit": "%"},
      {"measurement": "activity at 2000 µM", "setting": "protein phosphatase 2A [1]; [4]", "value": "103.3 ± 0.2", "unit": "%"},
      {"measurement": "activity at 500 µM", "setting": "protein phosphatase 2A [2]; [5]", "value": "29.8 ± 5.6", "unit": "%"},
      {"measurement": "activity at 2000 µM", "setting": "protein phosphatase 2A [2]; [5]", "value": "9.8 ± 3.4", "unit": "%"}
    ]},
    {"compound": "[Cl-].[Na+]", "note": "[NaCl]", "values": [
      {"measurement": "% activity Competitive binding assay", "setting": "protein phosphatase 2A [1]", "value": "41.2 ± 0.7", "unit": "%"},
      {"measurement": "% activity Protein phosphatase assay", "setting": "protein phosphatase 2A [2]", "value": "44.4 ± 1.6", "unit": "%"}
    ]},
    {"compound": "CO", "note": "[MeOH]", "values": [
      {"measurement": "% activity Competitive binding assay", "setting": "protein phosphatase 2A [1]; 10%", "value": "73.9 ± 0.5", "unit": "%"},
      {"measurement": "% activity Protein phosphatase assay", "setting": "protein phosphatase 2A [2]; 10%, preincubated 30 minutes on ice, relative to control, ± SEM", "value": "87.4 ± 4.1", "unit": "%"}
    ]},
    {"compound": "CC#N", "note": "[acetonitrile]", "values": [
      {"measurement": "% activity Competitive binding assay", "setting": "protein phosphatase 2A [1]", "value": "90.4 ± 5.4", "unit": "%"},
      {"measurement": "% activity Protein phosphatase assay", "setting": "protein phosphatase 2A [2]", "value": "88.2 ± 2.7", "unit": "%"}
    ]},
    {"compound": "microcystin-YR [reference compound]", "values": [
      {"measurement": "IC50", "setting": "protein phosphatase 2A [1]; read-out: IC50", "value": 0.075, "unit": "nM"}
    ]}
  ]
}
